Reference: US12459951B2, “Compounds that interact with RAS superfamily proteins for treatment of cancers, inflammatory diseases, rasopathies, and fibrotic disease” (SHY Therapeutics, LLC, priority 2022, dated 2025)

What was measured:
[1] = test system: Akt phosphorylation; assay: Akt Phosphorylation Assay (western blot), Panc-1; format: cell-based, human; details: at 10 μM, * = activation
In short: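 Phospho-Akt (Ser473) was measured by western blot in lysates of KRas G12D Panc-1 cells exposed to test compound for 6 h at 37 °C, either at 10 μM final with 0.3% DMSO or as serial dilutions for IC50. One format used overnight 0.5% FBS starvation followed by a 15 min pulse of 1.5 ng/ml EGF. The other used cells in 10% FBS with no stimulation.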

[2] = test system: IL6; assay: IL-6 Quantification Assay (ELISA), LPS-stimulated RAW 264.7; format: cell-based; set-up: inhibition: dose or concentration left out as unconfirmed; details: Mus musculus, RAW264.7; read-out: IL-6: % inh.
[3] = biological target: T1, Rac-1 (Homo sapiens, UniProt P63000); assay: Ras GTP Binding Domain Inhibition Assay (Ras Superfamily Assay); details: read-out: Rac-1: % inh.
T1 construct: made in house
In short: (§1)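 His-tagged GTPases immobilised on nickel-coated plates, pre-incubated with compound (20 μM single point, or serial dilution for IC50) 3 h at room temperature, with or without 10-30 μg/mL Sos (residues 556-1049) in the final hour. Bound Cy3- or Cy5-GTP (100 nM, 45 min) measured by fluorescence after washing.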

[4] = test system: KRas G12D mutant; assay: as above; details: 20 μM compound; for KRas G12D mutant + SOS: % inh.: with SOS; for KRas G12D mutant: % inh.: without SOS
In short: as §1

[5] = test system: KRas wild type; assay: as above; details: 20 μM compound; for KRas wild type + SOS: % inh.: with SOS; for KRas wild type: % inh.: without SOS
In short: as §1

| SMILES | % inh of Akt phosphorylation in Panc-1 [1] | inhibition [2] [%] | inhibition at 20 µM [3] [%] | KRas G12D mutant + SOS: % inh. [4] | KRas G12D mutant: % inh. [4] | KRas wild type + SOS: % inh. [5] | KRas wild type: % inh. [5] |
| --- | --- | --- | --- | --- | --- | --- | --- |
| CO[C@H]1CC[C@@H](Nc2nc(-c3nccn3C)nn3cc(-c4ccn(C)n4)c(C)c23)C1 (racemic) [Compound 133, rac N-((1R,3S)-3-Methoxycyclopentyl)-5-methyl-2-(1-methyl-1H-imidazol-2-yl)-6-(1-methyl-1H-pyrazol-3-yl)pyrrolo[2,1-f][1,2,4]triazin-4-amine] | B (26-49% inhibition) | 0 | 1 to 25 | 0 (0 = 0% inhibition) | B (B = 26-49% inhibition) | 0 (0 = 0% inhibition) | A (A = 1-25% inhibition) |
| Cc1c(-c2ccn(C)n2)cn2nc(-c3nccn3C)nc(Nc3cnccn3)c12 [Compound 120, 5-Methyl-2-(1-methyl-1H-imidazol-2-yl)-6-(1-methyl-1H-pyrazol-3-yl)-N-(pyrazin-2-yl)pyrrolo[2,1-f][1,2,4]triazin-4-amine] | B* (26-49% activation) | 25 to 49 | 26 to 49 | A (A = 1-25% inhibition) | B (B = 26-49% inhibition) | C (C = 50-75% inhibition) | A (A = 1-25% inhibition) |
| COc1cc(Nc2nc(-c3nccn3C)nn3cc(-c4ccccn4)c(C)c23)ncn1 [Compound 94, N-(6-Methoxypyrimidin-4-yl)-5-methyl-2-(1-methyl-1H-imidazol-2-yl)-6-(pyridin-2-yl)pyrrolo[2,1-f][1,2,4]triazin-4-amine] | D* (85-100% activation) | 50 to 74 | 50 to 75 | B (B = 26-49% inhibition) | C (C = 50-75% inhibition) | B (B = 26-49% inhibition) | C (C = 50-75% inhibition) |
| CCOc1ccnc(Nc2nc(-c3nccn3C)nn3cc(-c4ccn(C5CC5)n4)c(C)c23)c1 [Compound 141, 6-(1-Cyclopropyl-1H-pyrazol-3-yl)-N-(4-ethoxypyridin-2-yl)-5-methyl-2-(1-methyl-1H-imidazol-2-yl)pyrrolo[2,1-f][1,2,4]triazin-4-amine] | A (1-25% inhibition) | 25 to 49 | 76 to 100 | D (D = 76-100% inhibition) | D (D = 76-100% inhibition) | B (B = 26-49% inhibition) | C (C = 50-75% inhibition) |
| Cc1c(-c2ccn(C)n2)cn2nc(-c3nccn3C)nc(Nc3cc(OCCO)ncn3)c12 [Compound 101, 2-((6-((5-Methyl-2-(1-methyl-1H-imidazol-2-yl)-6-(1-methyl-1H-pyrazol-3-yl)pyrrolo[2,1-f][1,2,4]triazin-4-yl)amino)pyrimidin-4-yl)oxy) ethan-1-ol] | D* (85-100% activation) | 50 to 74 | 76 to 100 | C (C = 50-75% inhibition) | D (D = 76-100% inhibition) | B (B = 26-49% inhibition) | D (D = 76-100% inhibition) |
| Cc1c(-c2cccnc2)cn2nc(-c3nccn3C)nc(Nc3ccncn3)c12 [Compound 156, 5-Methyl-2-(1-methyl-1H-imidazol-2-yl)-6-(pyridin-3-yl)-N-(pyrimidin-4-yl)pyrrolo[2,1-f][1,2,4]triazin-4-amine] | D* (85-100% activation) | 1 to 24 | 76 to 100 | D (D = 76-100% inhibition) | D (D = 76-100% inhibition) | D (D = 76-100% inhibition) | D (D = 76-100% inhibition) |
| COc1ccnc(Nc2nc(-c3nccn3C)nn3cc(-c4cccnc4)c(-c4ccccn4)c23)c1 [Compound 166, N-(4-Methoxypyridin-2-yl)-2-(1-methyl-1H-imidazol-2-yl)-5-(pyridin-2-yl)-6-(pyridin-3-yl)pyrrolo[2,1-f][1,2,4]triazin-4-amine] | D* (85-100% activation) | 75 to 100 | 76 to 100 | D (D = 76-100% inhibition) | D (D = 76-100% inhibition) | D (D = 76-100% inhibition) | C (C = 50-75% inhibition) |
| COc1cc(Nc2nc(-c3nccn3C)nn3cc(-c4cccnc4)c(-c4ccccn4)c23)ncn1 [Compound 167, N-(6-Methoxypyrimidin-4-yl)-2-(1-methyl-1H-imidazol-2-yl)-5-(pyridin-2-yl)-6-(pyridin-3-yl)pyrrolo[2,1-f][1,2,4]triazin-4-amine] | B* (26-49% activation) | 0 | 1 to 25 | A (A = 1-25% inhibition) | B (B = 26-49% inhibition) | A (A = 1-25% inhibition) | A (A = 1-25% inhibition) |
| CO[C@@H]1CC[C@@H](Nc2nc(-c3nccn3C)nn3cc(-c4cccnc4)c(C)c23)C1 (racemic) [Compound 154, rac N-((1R,3R)-3-methoxy-cyclopentyl)-5-methyl-2-(1-methyl-1H-imidazol-2-yl)-6-(pyridin-3-yl)pyrrolo[2,1-f][1,2,4]triazin-4-amine] | B* (26-49% activation) | 25 to 49 | 50 to 75 | D (D = 76-100% inhibition) | D (D = 76-100% inhibition) | B (B = 26-49% inhibition) | B (B = 26-49% inhibition) |
| Cc1c(-c2ccn(C)n2)cn2nc(-c3nccn3C)nc(Nc3cc(OC(F)F)ccn3)c12 [Compound 128, N-(4-(Difluoromethoxy)pyridin-2-yl)-5-methyl-2-(1-methyl-1H-imidazol-2-yl)-6-(1-methyl-1H-pyrazol-3-yl)pyrrolo[2,1-f][1,2,4]triazin-4-amine] | D* (85-100% activation) | 25 to 49 | 76 to 100 | D (D = 76-100% inhibition) | D (D = 76-100% inhibition) | D (D = 76-100% inhibition) | D (D = 76-100% inhibition) |
| Cc1c(-c2ccn(C)n2)cn2nc(-c3nccn3C)nc(Nc3n[nH]c(C4CC4)n3)c12 [Compound 113, N-(5-Cyclopropyl-1H-1,2,4-triazol-3-yl)-5-methyl-2-(1-methyl-1H-imidazol-2-yl)-6-(1-methyl-1H-pyrazol-3-yl)pyrrolo[2,1-f][1,2,4]triazin-4-amine] | D* (85-100% activation) | 75 to 100 | 76 to 100 | D (D = 76-100% inhibition) | D (D = 76-100% inhibition) | D (D = 76-100% inhibition) | C (C = 50-75% inhibition) |
| COc1cc(Nc2nc(-c3nccn3C)nn3cc(-c4ccn(C(F)F)n4)c(C)c23)ncn1 [Compound 98, 6-(1-(Difluoromethyl)-1H-pyrazol-3-yl)-N-(6-methoxypyrimidin-4-yl)-5-methyl-2-(1-methyl-1H-imidazol-2-yl)pyrrolo[2,1-f][1,2,4]triazin-4-amine] | D* (85-100% activation) | 1 to 24 | 50 to 75 | C (C = 50-75% inhibition) | C (C = 50-75% inhibition) | A (A = 1-25% inhibition) | C (C = 50-75% inhibition) |
